Data as given in patent US20160130278A1 (TAISHO PHARMACEUTICAL CO., LTD, priority 2013, published 2016).

Biological target: T1, human type 1 glycine transporter (GlyT1) (Homo sapiens, UniProt P48067)
T1 construct: T98G cells (glioma cells) expressing human type 1 glycine transporter (GlyT1) were used
T1 sequence (P48067 1-706): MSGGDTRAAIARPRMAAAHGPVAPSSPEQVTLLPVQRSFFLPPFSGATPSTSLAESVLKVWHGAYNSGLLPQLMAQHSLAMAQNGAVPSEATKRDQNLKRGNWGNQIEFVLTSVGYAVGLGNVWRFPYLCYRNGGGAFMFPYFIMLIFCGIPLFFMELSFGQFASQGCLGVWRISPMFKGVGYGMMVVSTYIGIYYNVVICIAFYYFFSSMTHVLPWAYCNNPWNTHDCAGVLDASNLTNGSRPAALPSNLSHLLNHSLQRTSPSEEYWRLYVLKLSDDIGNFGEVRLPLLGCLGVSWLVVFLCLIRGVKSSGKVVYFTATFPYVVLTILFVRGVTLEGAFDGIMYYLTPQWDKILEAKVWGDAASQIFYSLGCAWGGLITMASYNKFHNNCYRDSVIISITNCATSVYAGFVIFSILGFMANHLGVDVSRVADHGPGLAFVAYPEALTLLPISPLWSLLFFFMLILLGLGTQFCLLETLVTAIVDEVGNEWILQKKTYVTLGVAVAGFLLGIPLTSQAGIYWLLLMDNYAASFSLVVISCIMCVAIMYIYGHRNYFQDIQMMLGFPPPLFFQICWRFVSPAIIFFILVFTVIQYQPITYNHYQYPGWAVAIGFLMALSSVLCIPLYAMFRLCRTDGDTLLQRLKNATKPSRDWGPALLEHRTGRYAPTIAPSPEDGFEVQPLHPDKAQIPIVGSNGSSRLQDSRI
Assay: Glycine uptake inhibition experiment ([3H]glycine uptake)
Type: cell-based
Settings: GlyT1
Experimental: Glycine Uptake Inhibition Experiment
A glycine uptake experiment was conducted in accordance with the method published in Neuron, 8, 927-935, 1992. In the experiment, T98G cells (glioma cells) expressing human type 1 glycine transporter (GlyT1) were used. The T98G cells were seeded in a 96-well plate at 2.0×10^4 cells/well and cultured overnight in a CO2 incubator. The test substance was dissolved in a 100% DMSO solution and then dissolved in a 10 mM HEPES buffer solution (pH 7.4) containing 150 mM sodium chloride, 1 mM calcium chloride, 5 mM potassium chloride, 1 mM magnesium chloride, 10 mM glucose and 0.2% bovine serum albumin. After removing the cell culture medium, the test substance was subjected to a 10-min pretreatment. Subsequently, the test substance and [^3H] glycine (final concentration: 250 nM) were added to the cells and reaction was performed at room temperature for 15 minutes. After the end of the reaction, the extracellular fluid was aspirated with a manifold to remove excess labeled glycine present outside the cells, and then the cells were lysed with a 0.5 M aqueous sodium hydroxide solution. The glycine content in the cells was determined by measuring the radioactivity in the cell lysate with a liquid scintillation counter. Glycine uptake in the presence of 10 μM ALX5407 was defined as non-specific uptake, and the value calculated by subtracting the amount of the non-specific uptake from the total uptake in the absence of 10 μM ALX5407 was defined as specific uptake. In addition, glycine uptake inhibitory activity (IC50 value) was calculated from an inhibition curve at the concentrations of each test substance ranging from 10^−9 to 10^−5 M. It should be noted that ALX5407 is an HCl salt of N-[(3R)-3-([1,1′-biphenyl]-4-yloxy)-3-(4-fluorophenyl)propyl]-N-methylglycine.

| SMILES | IC50 |
| --- | --- |
| O=C(NC(c1cccc(Cl)c1F)C1(O)CCC(F)(F)CC1)c1nccc(C(F)(F)F)c1Cl (single isomer, unassigned) [Compound 168, 3-chloro-N-[(3-chloro-2-fluorophenyl)(4,4-difluoro-1-hydroxycyclohexyl)methyl]-4-(trifluoromethyl)pyridine-2-carboxamide] | 57 nM |
| CCn1cc(-c2cccc(C(NC(=O)c3ccc(C(F)(F)F)cc3C)C3(O)CCC(F)(F)CC3)c2)cn1 (centres unmarked) [Compound 184, N-{(4,4-difluoro-1-hydroxycyclohexyl)[3-(1-ethyl-1H-pyrazol-4-yl)phenyl]methyl}2-methyl-4-(trifluoromethyl)benzamide] | 860 nM |
| O=C(NC(c1cccc(Br)c1)C1(O)CCCCC1)c1nccc(C(F)(F)F)c1Cl (centres unmarked) [Compound 38, N-[(3-bromophenyl)(1-hydroxycyclohexyl)methyl]-3-chloro-4-(trifluoromethyl)pyridine-2-carboxamide] | 60 nM |
| CCn1cc(-c2cccc(C(NC(=O)c3cccc(C)c3Cl)C3(O)CCC(F)(F)CC3)c2)cn1 (single isomer, unassigned) [Compound 152, 2-chloro-N-{(4,4-difluoro-1-hydroxycyclohexyl)[3-(1-ethyl-1H-pyrazol-4-yl)phenyl]methyl}-3-methylbenzamide] | 1300 nM |
| O=C(NC(c1cccc(F)c1)C1(O)CCCCC1)c1nccc(C(F)(F)F)c1Cl (single isomer, unassigned) [Compound 68, 3-chloro-N-[(3-fluorophenyl)(1-hydroxycyclohexyl)methyl]-4-(trifluoromethyl)pyridine-2-carboxamide] | 2600 nM |
| CCn1cc(-c2cccc(C(NC(=O)c3nccc(C(F)(F)F)c3Cl)C3(O)CCCC3)c2)cn1 (single isomer, unassigned) [Compound 14, 3-chloro-N-{[3-(1-ethyl-1H-pyraozl-4-yl)phenyl](1-hydroxycyclopentyl)methyl}-4-(trifluoromethyl)pyridine-2-carboxamide] | 13 nM |
| CCn1cc(-c2cccc(C(NC(=O)c3ccc(Cl)c(Cl)c3)C3(O)CCC(F)(F)CC3)c2)cn1 (centres unmarked) [Compound 175, 3,4-dichloro-N-{(4,4-difluoro-1-hydroxycyclohexyl)[3-(1-ethyl-1H-pyrazol-4-yl)phenyl]methyl}benzamide] | 4000 nM |
| O=C(NC(c1ccc(F)c(F)c1F)C1(O)CCC(F)(F)CC1)c1nccc(C(F)(F)F)c1Cl (centres unmarked) [Compound 170, 3-chloro-N-[(4,4-difluoro-1-hydroxycyclohexyl)(2,3,4-trifluorophenyl)methyl]-4-(trifluoromethyl)pyridine-2-carboxamide] | 630 nM |
| CCn1cc(-c2cccc(C(NC(=O)c3cccc4ccccc34)C3(O)CCC(F)(F)CC3)c2)cn1 (single isomer, unassigned) [Compound 196, N-{(4,4-difluoro-1-hydroxycyclohexyl)[3-(1-ethyl-1H-pyrazol-4-yl)phenyl]methyl}naphthalene-1-carboxamide] | 290 nM |
| O=C(NC(c1cccc(F)c1)C1(O)CCCC1)c1nccc(C(F)(F)F)c1Cl (single isomer, unassigned) [Compound 52, 3-chloro-N-[(3-fluorophenyl)(1-hydroxycyclopentyl)methyl]-4-(trifluoromethyl)pyridine-2-carboxamide] | 100 nM |
| O=C(N[C@@H](c1cccc(Br)c1)[C@]1(O)CC[C@H](F)CC1)c1nccc(C(F)(F)F)c1Cl [Compound 102, N-[(S)-(3-bromophenyl)(trans-4-fluoro-1-hydroxycyclohexyl)methyl]-3-chloro-4-(trifluoromethyl)pyridine-2-carboxamide] | 150 nM |
| O=C(NC(c1cccc(Br)c1)C1(O)CCC(F)CC1)c1nccc(C(F)(F)F)c1Cl (centres unmarked) [Compound 96, N-[(3-bromophenyl)(4-fluoro-1-hydroxycyclohexyl)methyl]-3-chloro-4-(trifluoromethyl)pyridine-2-carboxamide] | 250 nM |

Results, then the molecule that gave them:

| IC50 | SMILES |
| --- | --- |
| 2400 nM | O=C(NC(c1cccc(F)c1Cl)[C@]1(O)CC[C@@H](F)CC1)c1ccccc1-n1cnnn1 (single isomer, unassigned) [Compound 270, N-[(2-chloro-3-fluorophenyl)(cis-4-fluoro-1-hydroxycyclohexyl)methyl]-2-(1H-tetrazol-1-yl)benzamide] |
| 1900 nM | Cc1ccccc1C(=O)NC(c1cccc(F)c1Cl)[C@]1(O)CC[C@@H](F)CC1 (single isomer, unassigned) [Compound 267, N-[(2-chloro-3-fluorophenyl)(cis-4-fluoro-1-hydroxycyclohexyl)methyl]-2-methylbenzamide] |
| 250 nM | O=C(NC(c1ccccc1F)C1(O)CCC(F)(F)CC1)c1nccc(C(F)(F)F)c1Cl (single isomer, unassigned) [Compound 237] |
| 790 nM | O=C(NC(c1cccc(F)c1Cl)[C@]1(O)CC[C@@H](F)CC1)c1cccc(C(F)(F)F)c1-n1nccn1 (single isomer, unassigned) [Compound 379, N-[(2-chloro-3-fluorophenyl)(cis-4-fluoro-1-hydroxycyclohexyl)methyl]-2-(2H-1,2,3-triazol-2-yl)-3-(trifluoromethyl)benzamide] |
| 150 nM | O=C(NC(c1cccc(F)n1)C1(O)CCC(F)(F)CC1)c1nccc(C(F)(F)F)c1Cl (single isomer, unassigned) [Compound 358, 3-chloro-N-[(4,4-difluoro-1-hydroxycyclohexyl)(6-fluoropyridin-2-yl)methyl]-4-(trifluoromethyl)pyridine-2-carboxamide] |
| 1000 nM | O=C(NC(c1cccc(F)c1Cl)[C@]1(O)CC[C@@H](F)CC1)c1cc(Cl)nnc1Cl (single isomer, unassigned) [Compound 305, 3,6-dichloro-N-[(2-chloro-3-fluorophenyl)(cis-4-fluoro-1-hydroxycyclohexyl)methyl]pyridazine-4-carboxamide] |
| 1600 nM | O=C(NC(c1cccc(F)c1Cl)[C@]1(O)CC[C@@H](F)CC1)c1cccc2ccncc12 (single isomer, unassigned) [Compound 275, N-[(2-chloro-3-fluorophenyl)(cis-4-fluoro-1-hydroxycyclohexyl)methyl]isoquinoline-8-carboxamide] |
| 6400 nM | O=C(NC(c1cccc(F)c1Cl)[C@]1(O)CC[C@@H](F)CC1)c1ccc(Cl)cc1C(F)(F)F (single isomer, unassigned) [Compound 313, 4-chloro-N-[(2-chloro-3-fluorophenyl)(cis-4-fluoro-1-hydroxycyclohexyl)methyl]-2-(trifluoromethyl)benzamide] |
| 550 nM | O=C(NC(c1cccc(Cl)n1)[C@]1(O)CC[C@@H](F)CC1)c1nccc2ccccc12 (single isomer, unassigned) [Compound 310, N-[(6-chloropyridin-2-yl)(cis-4-fluoro-1-hydroxycyclohexyl)methyl]isoquinoline-1-carboxamide] |
| 1600 nM | O=C(NC(c1cccc(F)c1Cl)[C@]1(O)CC[C@@H](F)CC1)c1ccccc1C(F)(F)F (single isomer, unassigned) [Compound 276, N-[(2-chloro-3-fluorophenyl)(cis-4-fluoro-1-hydroxycyclohexyl)methyl]-2-(trifluoromethyl)benzamide] |
| 430 nM | O=C(NC(c1cccc(F)c1Cl)[C@]1(O)CC[C@@H](F)CC1)c1cc(Cl)ccc1Cl (single isomer, unassigned) [Compound 251, 2,5-dichloro-N-[(2-chloro-3-fluorophenyl)(cis-4-fluoro-1-hydroxycyclohexyl)methyl]benzamide] |
